Source: article PMC9847679, “The anti-breast cancer stem cell properties of gold(I)-non-steroidal anti-inflammatory drug complexes” (Chemical Science, 2022)

Key:
[1] = system: 4T1 cells; assay: Monolayer cytotoxicity (MTT assay), 4T1 cells; type: cell-based, murine; conditions: 72 h incubation
From the text: (§1) Cell Lines and Cell Culture Conditions. The human mammary epithelial HMLER and HMLER-shEcad cell lines were kindly donated by Prof. R. A. Weinberg (Whitehead Institute, MIT). The human epithelial breast MCF10A, breast adenocarcinoma MDA-MB-231 and MDA-MB-468, murine epithelial breast 4T1, and embryonic kidney HEK 293 cell lines were acquired from American Type Culture Collection (ATCC, Manassas, VA, USA).
(§2) HMLER, HMLER-shEcad, and MCF10A cells were maintained in Mammary Epithelial Cell Growth Medium (MEGM) with supplements and growth factors (BPE, hydrocortisone, hEGF, insulin, and gentamicin/amphotericin-B). MDA-MB-231, MDA-MB-468, 4T1, and HEK 293 cells were maintained in Dulbecco's Modified Eagle's Medium (DMEM) supplemented with fetal bovine serum (10 %) and penicillin/streptomycin (1 %). The cells were grown at 310 K in a humidified atmosphere containing 5% CO2.
(§3) Monolayer Cytotoxicity Studies. Exponentially growing cells were seeded at a density of approximately 5 × 10^3 cells per well in 96-well flat-bottomed microplates and allowed to attach for 24 h prior to addition of compounds. Various concentrations of the test compounds (0.0004-100 μM) were added and incubated for 72 h at 37 °C (total volume 200 μl). Stock solutions of the compounds were prepared as 10 mM DMSO solutions and diluted using cell […]
(§4) media. The final concentration of DMSO in each well was ≤1 %. […] The optical density was measured at 550 nm using a 96-well multiscanner autoreader. Absorbance values were normalised to (DMSO-containing) control wells and plotted as concentration of test compound versus % cell viability. […]
(§5) h, the fluorescence of the solutions was read at 590 nm (λex = 560 nm). […]
(§6) Cellular Uptake. […] The number of cells was counted at this stage, using a haemocytometer. […] All samples were diluted 17-fold with water and analysed using inductively coupled plasma mass spectrometry (ICP-MS, Thermo Scientific ICAP-Qc quadrupole ICP mass spectrometer). Gold levels are expressed as mass of Au (ng) per million cells. […]

[2] = system: MDA-MB-231 cells; assay: Monolayer cytotoxicity (MTT assay), MDA-MB-231 cells; type: cell-based, human; conditions: 72 h incubation
From the text: as §1, §2, §3, §4, §5, §6

[3] = Tissue biodistribution of gold; type: in vivo, BALB/c mice; conditions: 4T1-bearing mice after 16 days treatment, 10 mg kg−1 IP
Description: tumour-size and body-weight measurements were performed three days a week, and the mice were euthanised after 16 days (n = 5 for 1 and n = 5 for vehicle control).
Tissue biodistribution of 1. Following the treatment o f mice with 1 for 16 days, each tissue (heart, lung, liver, spleen, kidney, and tumo ur) was excised from euthanised mice (n = 3).
The tissues were boiled for 5 h at 60 °C with 70% nitric acid (0.5 mL) , and then boiled again at 60 °C for 10 min with 35% hydrogen peroxide (0.5 mL). The solutions turned yellow, and were diluted as needed to measure the gold content using a Graphite Furnace Atomic Absorption Spectrometer. Before measuring all samples, th e standard solution curves were […]
Hematoxylin and eosin staining. The mice used in the in vivo comparative experiment of 1 and the vehicle control were sacrificed at day 16 post tumo ur cells (4T1) injection. The tissues (liver, kidney, and tumour) were fixed in freshly prepared paraformaldehyde (4% in PBS) for 24 h and processed for paraffin sectioning. Tissue sections of 5 µm were stained with hematoxylin and eosin and used for histological examination. A total of 3 sections per tissue (spanning the full depth of the tissue) were examined and photographed using a Nikon

SMILES: COc1ccc2c(c1)c(CC(=O)[O][Au][PH](c1ccccc1)(c1ccccc1)c1ccccc1)c(C)n2C(=O)c1ccc(Cl)cc1 [complex 1]
- IC50 [1]: 2.24 ± 0.11 µM
- IC50 [2]: 3.94 ± 0.3 µM
- gold content in the kidney [3]: 15 μg g^−1 of tissue
- gold content in tumour tissue [3]: 3 μg g^−1 of tissue
